# Measurements published in patent US20220177819A1, “MICROFLUIDIC SYSTEM FOR INTRACELLULAR DELIVERY OF MATERIALS AND METHOD THEREFOR” (MxT BIOTECH, priority 2019, published 2022).
# Test system: MDA-MB-231 cells
# Assay: DOX cytotoxicity after delivery of DOX-loaded MSNs, trypan blue exclusion
# Assay type: cell-based
# Conditions: DOX loaded into MSNs delivered by the microfluidic system, after 6 hours
# Protocol: In the experiment, doxorubicin (DOX), an anticancer drug, was loaded into MSNs and the MSNs were delivered into MDA-MB-231 cells.
# Referring to FIG. 31, DOX cytotoxicity to MDA-MB-231 cells was measured by the trypan blue exclusion method, and it can be seen that approximately 85% of cancer cells were killed after 6 hours.
compound,measurement,value
"COc1cccc2c1C(=O)c1c(O)c3c(c(O)c1C2=O)C[C@@](O)(C(=O)CO)C[C@@H]3O[C@H]1C[C@H](N)[C@H](O)[C@H](C)O1 [DOX, doxorubicin]",cancer cells killed,approximately 85%
